Patent publication EP3733658B1, “PRENYLATED BENZOPYRANES AS PPAR AGONISTS” (Universitat de València, priority 2017, dated 2019)
Like-named read-outs stand apart in the source and are kept apart here.

How the values were obtained:
[1] = tested on: human neutrophils; test: MTT colorimetric cell viability assay, neutrophils; format: cell-based; details: 30 µM, 24 h
Procedure: (§1) To evaluate potential adverse effects (cytotoxicity) of the compounds of the invention, the compounds 1 and 2 for use according to the present invention, compound 8 of the invention, and the reference compounds were evaluated at concentrations of 30 and 100 µM in human neutrophils (Fig. 1A) and primary cultures of human umbilical vein endothelial cells (HUVEC) (Fig. 1B) using two different techniques: MTT colorimetry assay and flow cytometry analysis for cellular apoptosis and survival. In addition, the synthetic compound 9 of the invention was evaluated at 10, 30 and 100 µM (Fig. 2).
(§2) MTT assay. The viability of neutrophils and HUVEC was determined by the MTT colorimetric assay MTT (3(4,5-dimethylthiazol-2-yl)-2,5-diphenyltetrazoyl bromide).
Neutrophils were obtained from the leukocyte-platelet fraction (buffy coats) of healthy donors by centrifuging with Ficoll-Hypaque density gradient.
(§3) 100 µL of neutrophils and HUVEC (2 × 10^5 cells/mL) suspension in supplemented RPMI medium were added to each well of a 96-well plate. The cells were incubated in absence and/or presence of the compounds at 37°C for24h. An MTT solution was prepared (2 mg/mL in PBS). 100 µL of the MTT solution were added to each well and incubated at 37°C for an additional 3 h. The supernatants were discarded and 200 µL of DMSO were added to each well to dissolve the precipitated formazan. The optical densities at two wavelengths (560 and 630 nm) were measured in a spectrophotometer (Infinite M200, Tecan, Mannedorf, Switzerland).

[2] = Treatment of ob/ob mice: plasma metabolites (cholesterol, HDL-c, triglycerides, free fatty acids, ALT, AST); format: in vivo; details: oral, 4 days
Procedure: […]. […] […].
Free fatty acids (FFA) in plasma, and the enzymes aspartate aminotransferase (AST) and alanine aminotransferase (ALT) were determined with a colorimetric assay kit (Sigma-Aldrich, Madrid, Spain). In addition the plasma lipid levels for total cholesterol and triglycerides (TG) were measured by enzymatic methods (WAKO, Cape Charles, VA). The concentration of HDLcholesterol (HDL-c) was also determined with the same method used to measure total cholesterol, after precipitating the apolipoprotein-B (apoB) with dextran sulphate/MgCl2 (Sigma-Aldrich, Madrid, Spain) as previously described (Zieske et al., 2005).

[3] = biological target: T1, hPPARα (Homo sapiens, UniProt Q07869); test: PPAR/Gal4 chimera luciferase reporter transactivation assay in transiently transfected Cos-7 cells (hPPARα); format: cell-based; details: for Emax: COS-7, read-out: hPPARα Efficacy (%); for hPPARα Efficacy (%): maximum activity as percentage of the maximum activity of WY-14643; for EC50: Cos-7 cells, 24 h, tested 0.001 to 10 µM, read-out: hPPARα EC50
T1 sequence (Q07869 167-468): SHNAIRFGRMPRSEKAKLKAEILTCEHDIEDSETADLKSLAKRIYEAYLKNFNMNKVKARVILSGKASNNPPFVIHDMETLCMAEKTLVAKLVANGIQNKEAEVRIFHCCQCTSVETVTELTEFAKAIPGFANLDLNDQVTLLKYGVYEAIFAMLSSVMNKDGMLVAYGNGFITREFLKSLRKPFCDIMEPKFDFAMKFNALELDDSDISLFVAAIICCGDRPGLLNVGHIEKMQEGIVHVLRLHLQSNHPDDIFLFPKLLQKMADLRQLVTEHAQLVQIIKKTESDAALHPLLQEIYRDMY
Procedure: (§4) The cells were maintained under standard culture conditions (Dulbecco modified minimum essential Eagle medium, DMEM) supplemented with 10% fetal calf serum (FCS) at 37°C in 5% […] CO2 atmosphere. The medium was changed every 2 days. The Cos-7 cells were seeded in 60 mm discs at a density of 5.5 × 10^5 cells/disc in DMEM supplemented with 10% FCS and incubated at 37°C for 16 h before transfection. The cells were transfected in DMEM using jetPEI, with reporter (pG5-TK-pGL3) and expression (pGal4-h, hPPARα or hPPARγ) plasmids. The expression plasmid pCMV-β-galactosidase was cotransfected as a control for transfection efficacy. After 16 h the transfection was stopped adding DMEM supplemented with 10% FCS, and the cells were trypsinised and seeded in 96-well plates and incubated for 6 h in DMEM containing 10% FCS. Subsequently, the cells were incubated for 24 h in DMEM containing 0.2% FCS and increasing concentrations of the compounds or the vehicle (DMSO, maximum concentration 0.1%) were tested. Finally, the cells were washed once with PBS cooled on ice, lysed and the luciferase and β-galactosidase assays were performed.
(§5) To evaluate the compounds for PPAR transcriptional activity, the tests were conducted in a PPAR/Gal4 chimera of a human luciferase reporter gene to determine the maximum transactivation response of each compound.

[4] = biological target: T2, hPPARγ (Homo sapiens, UniProt P37231); test: PPAR/Gal4 chimera luciferase reporter transactivation assay in transiently transfected Cos-7 cells (hPPARγ); format: cell-based; details: for Emax: COS-7, read-out: hPPARγ Efficacy (%); for hPPARγ Efficacy (%): maximum activity as percentage of the maximum activity of rosiglitazone
T2 sequence (P37231 238-505): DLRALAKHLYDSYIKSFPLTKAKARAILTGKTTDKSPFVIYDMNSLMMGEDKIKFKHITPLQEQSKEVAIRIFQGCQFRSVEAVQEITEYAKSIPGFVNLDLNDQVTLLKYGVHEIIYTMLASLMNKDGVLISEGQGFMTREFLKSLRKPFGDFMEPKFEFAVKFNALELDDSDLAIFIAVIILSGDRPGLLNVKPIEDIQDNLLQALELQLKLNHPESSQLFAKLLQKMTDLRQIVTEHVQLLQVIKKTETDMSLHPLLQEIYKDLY
Procedure: as §4, §5

[5] = tested on: HUVEC; test: Annexin V / propidium iodide flow cytometry of apoptosis and survival, HUVEC; format: cell-based, human; details: 24 h; for apoptosis and survival: 30 µM; for reduced cell survival: 100 µM
Procedure: (§6) In addition, the apoptosis and survival rate for human neutrophils and HUVEC was determined by double staining with annexin V and propidium iodide (PI) by flow cytometry.
(§7) Cytofluorometric analysis of apoptosis and survival. The kit FITC Annexin V Apoptosis Detection kit (BD Bioscience, San Jose, CA) was used. The staining protocol and all the reagents were supplied with the commercial kit. HUVEC were separated from the culture flasks by accutase (StemPro® Accutase® Cell dissociation reagent, Thermofischer Scientific Waltham, MA). Both cell types were incubated at 37°C for 24h in the presence or absence of the test compounds. Confluent HUVEC and freshly isolated neutrophils were washed, resuspended in binding buffer 1x (1 × 10^6 cells/mL) and stained with annexin V conjugated with FITC and propidium iodide (PI) as described in the manufacturer's instructions. The cells were analyzed in a BD FACSVerse Flow Cytometer (BD Biosciences, San Jose, CA) and differentiated as early apoptosis cells (annexin V^+ and PI^-), late apoptosis cells and/or necrotic cells (annexin V^+ and PI^+), and live cells (annexin V^- and PI^-).

[6] = tested on: human umbilical vein endothelial cells (HUVEC); test: MTT colorimetric cell viability assay, HUVEC; format: cell-based; details: 30 µM, 24 h
Procedure: as §1, §2
Human umbilical vein endothelial cells (HUVEC) were isolated with the collagenase treatment and maintained in a human specific endothelial base medium (EBM-2) supplemented with endothelial growth medium (EGM-2) and 10% FCS. Cells of the first passage were cultured until their confluence in 24-well plates. Before starting each experiment, the cells were incubated for 24 h in a medium containing 1% FBS.
as §3

[7] = tested on: human neutrophils; test: Annexin V / propidium iodide flow cytometry of apoptosis and survival, neutrophils; format: cell-based; details: 100 µM, 24 h, compared to the vehicle
Procedure: as §6, §7

[8] = Cos-7 cells, 24 h, tested 0.001 to 10 µM, read-out: hPPARγ EC50

Compound | Emax [3] [%] | Emax [4] [%] | EC50 [4, 8] [µM] | other results
Cc1cccc(Nc2cc(Cl)nc(SCC(=O)O)n2)c1C [WY-14643, reference compound] |  |  |  | cytotoxicity (MTT) [1]: 9%; triglyceride levels in plasma (in words) [2]: decrease of triglyceride levels in plasma, although not in a significant manner; increase of total cholesterol levels with respect to the control group ([2]; plasma, 30 mg/Kg/d): 64%; HDL-c with respect to the control group ([2]; plasma, compound 9 10 and 30 mg/Kg/d, WY-14643 30 mg/Kg/d): significantly increased
C/C(=C\CCC1(C)CCc2cc(OCc3ccccc3)cc(C)c2O1)CC/C=C(\C)C(=O)OCc1ccccc1 (stereo not shown) [Compound 4b] | 28 | 0 |  | 
COC(=O)C(C)=CCCC(C)=CCCC1(C)CCc2cc(O)cc(C)c2O1 (stereo not shown) [Compound 5] |  |  | 0.574 | hPPARα Efficacy (%) [3]: 27%; hPPARγ Efficacy (%) [4]: 35%
COC(=O)C(OC(=O)/C(C)=C/CC/C(C)=C/CCC1(C)CCc2cc(OC)cc(C)c2O1)C(=O)OC (stereo not shown) [Compound 7] | 76 | 37 |  | 
COc1cc(C)c2c(c1)CCC(C)(CC/C=C(\C)CC/C=C(\C)C(=O)O)O2 (stereo not shown) [Polycerasoidin, 2, polycerasoidin] | 82 | 55 | 1 | apoptosis and survival [5]: some significant effects; reduced cell survival [5]: 38,9%; EC50 [3]: 1 µM; toxicity (MTT) [1]: showed toxicity; toxicity (MTT) [6]: showed toxicity
COC(=O)COC(=O)/C(C)=C/CC/C(C)=C/CCC1(C)CCc2cc(OC(=O)c3ccccc3)cc(C)c2O1 (stereo not shown) [Compound 6] | 14 | 0 |  | 
CN(CCOc1ccc(CC2SC(=O)NC2=O)cc1)c1ccccn1 (stereo not shown) [Rosiglitazone, rosiglitazone, reference compound] |  |  |  | apoptosis and survival [5]: some significant effects; reduced cell survival [5]: 79,2%; effect on cell survival [7]: 8.5%
COC(=O)COC(=O)/C(C)=C/CC/C(C)=C/CCC1(C)CCc2cc(OC)cc(C)c2O1 (stereo not shown) [Compound 8] | 39 | 24 | 0.012 | apoptosis and survival [5]: some significant effects; reduced cell survival [5]: 61,3%; effect on cell survival [7]: 5.3%; toxicity (MTT) [1]: showed toxicity; toxicity (MTT) [6]: showed toxicity
CCOC(=O)C(=CCCC1(C)CCc2cc(OCc3ccccc3)ccc2O1)OCC(F)(F)F (stereo not shown) [Compound 13] |  |  |  | hPPARα Efficacy (%) [3]: 166%; EC50 [4]: 0.4 µM; hPPARγ Efficacy (%) [4]: 39%
C/C(=C\CCC1(C)CCc2cc(OCC(N)=O)cc(C)c2O1)CC/C=C(\C)C(=O)OCc1ccccc1 (stereo not shown) [Compound 4a] | 18 | 0 |  | 
CCO/C(=C\CC/C(C)=C/CCC1(C)CCc2cc(OCc3ccccc3)ccc2O1)C(=O)O (stereo not shown) [Compound 11] | 96 | 62 | 0.3 | EC50 [3]: 1.5 µM
CCOC(=O)/C(=C/CC/C(C)=C/CCC1(C)CCc2cc(OCc3ccccc3)ccc2O1)OCC (stereo not shown) [Compound 10] | 60 | 183 | 2 | 
CCOC(=O)/C(=C/CC/C(C)=C/CCC1(C)CCc2cc(OCc3ccc(F)cc3)ccc2O1)OCC (stereo not shown) [Compound 12] | 113 | 183 | 2 | 
CCCOC(=O)/C(C)=C/CC/C(C)=C/CCC1(C)CCc2cc(O)cc(C)c2O1 (stereo not shown) [Compound 3] | 100 | 86 |  | 
